Results as given in US8492109B2 (priority 2009, dated 2013).

Tests used:
[1] = system: HIT-T15 cells; format: cell-based, human
[2] = system: neuronal cell lines M17, Neuro2a and non-neuronal cell lines HEK293, HIT-T15; format: cell-based
[3] = system: M17 cells; format: cell-based
[4] = system: HIT-T15 cells; format: cell-based, human; remark: listed apart in the source
[5] = system: M17 cells
[6] = system: HEK293 cells
[7] = system: primary rat granule cerebellar neurons (RGCN)

CO/C1=C\C(C)=C\[C@@H](C)[C@@H](O)[C@@H](C)C/C(C)=C/C=C/[C@H](OC)[C@@H]([C@@H](C)[C@@H](O)[C@H](C)[C@@]2(O)C[C@@H](O)[C@H](C)[C@@H](C(C)C)O2)OC1=O [Bafilomycin, Bafilomycin A1]
inhibition of functional internalization of recombinant BoNT/A Lc [1]: inhibited functional internalization | inhibition of BoNT intoxication [2]: clearly inhibited | sensitivity of functional transduction of BoNT Lc to bafilomycin [2]: fully sensitive | effect on efficiency of plasmid DNA transfection mediated by FuGene (fluorescent protein expression) [3]: no inhibitory effect | effect on efficiency of plasmid DNA transfection mediated by FuGene (fluorescent protein expression) [4]: no inhibitory effect | inhibition of SNAP25 cleavage by BoNT/A holotoxin [5]: inhibited SNAP25 cleavage | bafilomycin cytotoxicity [6]: particularly susceptible to bafilomycin toxicity | SNAP25 cleavage in bafilomycin-treated cells [7]: a small amount of SNAP25 cleavage was observed | cytotoxicity (visual) [7]: Some cytoxicity | inhibition of BoNT/A intoxication (SNAP25 cleavage) [7]: completely inhibit
